The text below walks through data of patent US20080119527A1, “Composition for combating the localized hyperpigmentation of dark skin” (L'OREAL, priority 2006, published 2008).

Each structure is given as a SMILES string. pIC50: −log10 of the molar value.

What all share (format): cell-based
Data set [1] deals with coculture of normal human keratinocytes and melanocytes. The data set is described as follows: Melanogenesis modulation: 14C-thiouracil incorporation in keratinocyte/melanocyte coculture. The method, then: Measurement of the melanogenesis-modulating effect of the copolymer of styrene/hydrolysed maleic anhydride (50/50) in sodium salt form, at 40% in water (SMA1000HNa® from the company Cray Valley), in the presence or absence of ascorbic acid, on a coculture of normal human keratinocytes and melanocytes.
The melanogenesis-modulating effect of the copolymer SMA1000HNa® was tested according to the method described in patent FR-A-2 734 825, and also in the article by R. Schmidt, P. Krien and M. Régnier, Anal. Biochem., 235(2), 113-18, 1996.
Briefly, the method comprises the steps consisting in:
coculturing normal human keratinocytes/melanocytes in a medium containing the tested extract and also a labelled melanin precursor, in the present case C14-labelled thiouracil,
lysing the cells containing the melanin with protein-degrading enzymes,
passing the extract obtained through an anion-exchange filter with a pore diameter of less than or equal to 1 μm, and
evaluating the amount of melanin bound by the filter by means of radioactive assay of the thiouracil.
(§1) Specifically, 50 000 normal human keratinocytes and 17 000 normal human melanocytes are mixed together and inoculated per well in 96-well plates (Costar type) and cultured for three days in the differentiation medium. During the following three days, the culture medium is replaced daily with the defined test medium (containing the products to be evaluated, and also 3 μCi/ml of C14-labelled thiouracil).
The following controls are prepared: • control culture: test medium • positive melanogenesis-stimulating control: test medium+1 mM tyrosine; • 3 positive melanogenesis-inhibiting controls: test medium+, respectively, 500 μM of kojic acid; 100 μM of arbutin; […] of lucinol (2-butyl-1,3-benzenediol).
(§2) After one night, the cells are rinsed in phosphate buffer (phosphate-buffered saline, PBS). The proteins are precipitated using 5% trichloracetic acid (TCA) and washed in order to remove the free radioactivity. The proteins are incubated overnight at 37° C. using a proteinase K solution at 20 μl/ml in tris-HCl-Triton EDTA buffer.
(§3) 50 μl of total extract are taken and transferred into a 96-well plate (Wallac) and 150 μl of scintillation liquid (Optiphase “Supermix”) are added. The rest of the extract, i.e. 950 μl, is filtered through a DEAE Filtermat filter. After rinsing, the filter covered with the “Meltilex” solid scintillant is transferred into a counting plate. The radioactivity is counted using a Wallac counter. The results are expressed as a percentage of the control according to the formula: […]
14CP is the mean of the disintegrations per minute (dpm) of 14C-thiouracil on 3 similar wells treated with a product (P);
3HP is the mean of the dpm of the corresponding 3H-leucine;
14CT is the mean of the dpm of 14 C-thiouracil on 3 similar control wells (T);
3HT is the mean of the dpm of the corresponding 3H-leucine.
The ratio of the incorporation of thiouracil to the incorporation of leucine is calculated, to normalize the melanogenesis to the amount of proteins present in the well. This ratio reflects the melanogenesis modulation.

The test system is the same in data set [2]. In words: Tritiated leucine incorporation (proliferation and early cytotoxicity indicator) in the coculture.
Source text: as §1
The total radioactivity incorporated into the proteins is estimated by the incorporation of tritiated leucine, taken as the proliferation indicator and the early cytotoxicity indicator. On the day before the sample is taken, 1 μCi/ml of tritiated leucine is added to the test medium. It is considered that a product is cytotoxic when the content of tritiated leucine falls by at least 30%.
as §2, §3

Data set [3] has as its system Normal human melanocyte/keratinocyte cocultures (NHM/NHK). The data set is described as follows: Photoinduced melanogenesis (UV irradiation) in NHM/NHK coculture, anti-pigmentation protocol. An excerpt:
Measurement of the photoinduced melanogenesis-modulating effect of the polymer SMA1000HNa® in the presence or absence of ascorbic acid on a coculture of normal human keratinocytes and melanocytes (anti-pigmentation effect).
(§4) Normal human melanocyte/keratinocyte cocultures (NHM/NHK) undergo 1 irradiation with UV radiation, repeated daily for 4 days, in the presence or absence of the products to be evaluated. The melanin synthesis is quantified as previously by means of the incorporation of ^14C-thiouracil present in the culture medium. In parallel, a protein assay is performed in each well in order to normalize the melanin synthesis and to estimate the toxicity of the product.
More specifically, the melanocytes and keratinocytes are inoculated, respectively, at 80 000 and 250 000 cells per well in 24-well plates in the keratinocyte differentiation medium. The plates are incubated for 3 days at 37° C. before treatment.
To avoid photo-oxidation of one of its components, the culture medium is replaced at the time of irradiation with a solution of the products in PBS. The products are placed in contact with the cells for 15 minutes before irradiation.
The UV irradiation is performed using a sun simulator. The delivered dose is 7 J/cm^2. Irradiation source: Oriel Xénon 1000W simulator+dichroic filter+WG 320/1.5 mm.
The following controls are prepared:
Non-irradiated control (quantification of the constitutive melanogenesis)
Blank irradiation control
2 positive controls of photoinduced melanogenesis inhibition: (100 μM arbutin; 1 μM lucinol).
After irradiation, the PBS is removed and the cells are incubated in a semi-defined culture medium to which are added the products and the ^14C-thiouracil (1 μCi/ml). This treatment is repeated daily for 4 days.
(§5) For each experimental condition, cell lysates are performed by rinsing the cells with a phosphate buffer (PBS). The proteins are precipitated using 5% trichloracetic acid (TCA) and washed in order to remove the free radioactivity. The proteins are incubated over a weekend at 37° C. using a proteinase K solution at 20 μl/ml in tris HCl-Triton-EDTA buffer.
(§6) 5 μl of total extract are taken and transferred into a 96-well plate (Wallac). The proteins are assayed using the Protein Assay Reagent assay kit (Pierce). The amount of proteins per well (P) will be used to normalize the melanogenesis. The rest of the extract is filtered on a DEAE Filtermat filter (Wallac). After rinsing, the filter covered with “Meltilex” solid scintillant (Wallac) is transferred into a Costar counting plate. The radioactivity is counted using a Wallac counter and allows quantification of the melanogenesis (M) by measurement of the ^14C-thiouracil (ccpm) incorporated by the cells.
Normalized melanogenesis (NM)=M/P
Photo-induced melanogenesis (PIM)=NM (irradiated sample)−NM (non-irradiated sample)
Anti-pigmenting effect of the product (%)=[[PIM(irradiated+treated sample)−PIM(irradiated sample)]/PIM(irradiated sample)]×100

Data set [4] has the same test system. The data set is described as follows: Protein assay per well (toxicity estimate) in UV-irradiated NHM/NHK coculture. The method, then:
as §4, §5, §6

With `OC[C@H]1O[C@@H](Oc2ccc(O)cc2)[C@H](O)[C@@H](O)[C@@H]1O` [Arbutin, arbutin], in data set [1] (100 μM), the “14C ThioU. (%/Control)” value was −49% and the “14C ThioU./3H Leu.” value is recorded as −44%. Further, the “3H Leu. (%/Control)” value in data set [2] (100 μM) is given as −8%. Also, in data set [3] (100 μM + SSR), the “Anti-pigmenting effect of the product” value is recorded as −111% and the “PIM (%/non-irradiated control)” value was −24%. Further, the “Proteins (%/non-irradiated control)” value in data set [4] (100 μM + SSR) is reported as −15%.
`O=c1cc(CO)occ1O` [Kojic acid, kojic acid]: in data set [1] (500 μM), the “14C ThioU. (%/Control)” value was −56% and the “14C ThioU./3H Leu.” value is on record as −52%. For the same compound, the “3H Leu. (%/Control)” value in data set [2] (500 μM) is −8%.
With `N[C@@H](Cc1ccc(O)cc1)C(=O)O` [Tyrosine, tyrosine], in data set [1] (1 mM), the “14C ThioU. (%/Control)” value is 96% and the “14C ThioU./3H Leu.” value is recorded as 85%. Also, the “3H Leu. (%/Control)” value in data set [2] (1 mM) is reported as “+6%”.
Consider `O=C1O[C@H]([C@@H](O)CO)C(O)=C1O` [vitamin C, ascorbic acid], for which the pIC50 in data set [1] (Homo sapiens, vitamin C alone, read-out: IC50 (14C ThioU./3H Leu.)) is about 3.64; in data set [3] (Homo sapiens, vitamin C alone, read-out: IC50 (anti-pigmenting effect)) it was about 3.33. The “14C ThioU. (%/Control)” value is −14% in data set [1] (vitamin C 0.1 mM), −69% in data set [1] (vitamin C 0.3 mM), −79% in data set [1] (vitamin C 0.4 mM) and −76% in data set [1] (vitamin C 0.6 mM). For the same compound, the “14C ThioU./3H Leu.” value in data set [1] (vitamin C 0.1 mM) was −14%; in data set [1] (vitamin C 0.3 mM) it was −62%; in data set [1] (vitamin C 0.4 mM), −72%; in data set [1] (vitamin C 0.6 mM) it was −68%. The “3H Leu. (%/Control)” value is 0% in data set [2] (vitamin C 0.1 mM), −17% in data set [2] (vitamin C 0.3 mM), −23% in data set [2] (vitamin C 0.4 mM) and −23% in data set [2] (vitamin C 0.6 mM). Also, the “Anti-pigmenting effect of the product” value in data set [3] (vitamin C 0.3 mM) was −40%; in data set [3] (vitamin C 1 mM) it was −65%; in data set [3] (vitamin C 2 mM) it was −90%; in data set [3] (vitamin C 3 mM), −100%. Also, the “PIM (%/non-irradiated control)” value amounted to 134% in data set [3] (vitamin C 0.3 mM), 78% in data set [3] (vitamin C 1 mM), 23% in data set [3] (vitamin C 2 mM) and 0% in data set [3] (vitamin C 3 mM). Besides, the “Proteins (%/non-irradiated control)” value in data set [4] (vitamin C 0.3 mM, UV irradiated) is listed as −12%; in data set [4] (vitamin C 1 mM, UV irradiated), −19%; in data set [4] (vitamin C 2 mM, UV irradiated) it was −19%; in data set [4] (vitamin C 3 mM, UV irradiated), −22%.
